# In article PMC7669867, “Synthesis and initial screening of lactate dehydrogenase inhibitor activity of 1,3-benzodioxole derivatives” (Scientific Reports, 2020):
# Values joined by “and” are separate entries in the source; they are usually repeats but may differ in a detail not shown here. Equal values may be shown once. Read-outs that look alike come from different tables or passages of the source.
# Columns and labels:
# [1] = system: LDHA; conditions: cited from earlier work; for LDHA inhibitory activity: at concentrations up to 1 mM
# [2] = system: human pancreatic cancer MiaPaCa-2 cells; test: Cell viability MTT assay, MiaPaCa-2; format: cell-based; conditions: read-out: MiaPaCa-2 (GI50)
# Method: (§1) The human pancreatic cancer cell lines, PANC-1 and MiaPaCa-2, human lung cancer A549 cells, human breast cancer MCF-7, and human glioma U87 cells were obtained from the Korean cell line bank (Seoul, Korea). The cells were cultured in Dulbecco’s Modified Eagle Medium (DMEM; ThermoFisher Scientific, Waltham, MA) supplemented with 10% fetal bovine serum (FBS; Sigma-Aldrich) and 1% penicillin/streptomycin (ThermoFisher Scientific). The cells were cultured at 37 °C in an atmosphere containing 5% CO2.
# (§2) The potential cytotoxicity of compounds at different concentrations was evaluated using the MTT assay. Briefly, cancer cell lines were pre-incubated in 96-well plates with compounds for 48 h. Subsequently, MTT working solution (2 mg/mL in phosphate buffer solution) was added to each well and the plate was incubated for 4 h at 37 °C in an atmosphere containing 5% CO2. Then, the conditioned media were aspirated, and the formed formazan crystals in living cells were quantified using the microplate reader (Spectramax M2) at 540 nm. The concentrations that produce 50% cell growth inhibition (GI50) were calculated by curves constructed by the plot of cell survival by an assistant of PRISM software (GraphPad, San Diego, CA).
# [3] = system: human pancreatic cancer PANC-1 cells; test: Cell viability MTT assay, PANC-1; format: cell-based; conditions: read-out: PANC-1 (GI50)
# Method: as §1, §2
# [4] = system: human lung cancer A549 cells; test: Cell viability MTT assay, A549; format: cell-based; conditions: read-out: A549 (GI50)
# Method: as §1, §2
# [5] = biological target: T1, purified recombinant human LDHA protein (Homo sapiens, UniProt P00338); test: In vitro LDHA inhibitor activity (NADH fluorescence decrease); format: biochemical; conditions: for LDHB/LDHA: ratio of LDHB IC50 to LDHA IC50 (selectivity)
# T1 construct: purchased Abcam
# Method: (§3) The in vitro evaluation of the LDHA inhibitor activities of the synthesized compounds was determined by the NADH intensity decrease through oxidation in a solution of HEPES-K^+, NADH, and pyruvate at a pH = 7.2. The NADH oxidation fluorescence intensity was measured using a spectrofluorometer at 340 nm excitation and 460 nm emission wavelengths, representing the NADH-specific fluorescence spectrum. Furthermore, the in vitro evaluation of the LDHB inhibitor activity was determined as a reverse reaction, which converts lactate to pyruvate by determining the amount of NAD^+ converted to NADH using the above-mentioned spectrophotometric experimental setting (Table 2). Based on this analysis, the half-maximal inhibitory concentration (IC50) of the synthesized compounds was obtained.
# In vitro evaluation on LDHA inhibitor activity. LDHA activity assay was performed in accordance with previous studies[16],[18]. Briefly, the various concentrations of compounds were incubated with reaction buffer containing 20 mM HEPES-K^+, 20 μM NADH, 2 mM pyruvate, and 100 ng of purified recombinant human LDHA protein (Abcam, Cambridge, UK). The fluorescence of NADH, which has an excitation wavelength of 340 nm and an emission wavelength of 460 nm, was detected using a microplate spectrofluorometer (Spectramax M2; Molecular Devices, Sunnyvale, CA).
# [6] = system: human glioma U87 cells; test: Cell viability MTT assay, U87; format: cell-based; conditions: U-87 MG, 48 h, read-out: U87 (GI50)
# Method: as §1, §2
# [7] = system: human breast cancer MCF-7; test: Cell viability MTT assay, MCF-7; format: cell-based; conditions: read-out: MCF-7 (GI50)
# Method: as §1, §2
# [8] = biological target: T2, purified recombinant human LDHB protein (Homo sapiens, UniProt P07195); test: In vitro LDHB activity assay (NAD+ converted to NADH); format: biochemical
# T2 construct: purchased Abcam
# T2 sequence (P07195 whole entry): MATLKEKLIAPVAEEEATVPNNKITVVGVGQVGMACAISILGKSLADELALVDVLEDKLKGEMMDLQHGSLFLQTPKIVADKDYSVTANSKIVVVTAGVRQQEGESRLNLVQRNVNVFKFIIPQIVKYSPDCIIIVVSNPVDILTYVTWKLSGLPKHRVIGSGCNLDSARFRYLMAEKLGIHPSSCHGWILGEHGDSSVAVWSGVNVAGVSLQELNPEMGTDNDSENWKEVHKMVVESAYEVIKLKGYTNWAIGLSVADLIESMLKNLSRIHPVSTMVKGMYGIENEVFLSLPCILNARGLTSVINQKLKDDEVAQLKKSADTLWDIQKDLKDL
# Method: as §3
# In vitro analysis was determined the amount of NAD^+ converted to NADH[33]. The assay mixture composed of 100 mM Tris–HCl buffer (pH 8.0), 200 mM sodium L-lactate, 2.5 mM NAD^+, and 100 ng of purified recombinant human LDHB protein (Abcam). The fluorescence intensity of NADH was measured using a spectrofluorometer (Spectramax M2) at 340 nm as excitation wavelength and 460 nm as emission wavelength which is the specific fluorescence of NADH.
# [9] = in vitro; format: in vitro ADME, human; conditions: human, plasma
# Method: (§4) Human and rat plasma (Sigma-Aldrich) are incubated at 37 °C with test compounds. During the incubation, aliquots are withdrawn at 0, 30, 120 min time points and acetonitrile solution (containing chlorpropamide) is added. After vortexing, the aliquots are centrifuged and the supernatant is withdrawn for analysis by LC–MS/MS.
# [10] = in vitro; format: in vitro ADME, rat; conditions: rat, plasma
# Method: as §4
# [11] = Homo sapiens, PANC-1, MTT, 48 h
# [12] = synthesized compounds, read-out: LDHA IC50
# [13] = synthesized compounds, read-out: LDHB IC50
"GI50 ([2]; MIA PaCa-2, MTT, 48 h)","GI50 [3, 11]","GI50 ([4]; A549, MTT, 48 h)","IC50 [5, 12]",GI50 ([6]; MTT),"GI50 ([7]; MCF7, MTT, 48 h)","IC50 [8, 13]",Compound,further results
–,–,–,–,–,–,–,"c1ccc2c(c1)OCO2 [1,3-benzodioxole]",LDHA inhibitory activity [1]: did not exhibit an LDHA inhibitory activity
> 1000 µM,> 1000 µM,> 1000 µM,> 1000 µM,> 1000 µM,> 1000 µM,79 µM,O=C(OCc1ccc2c(c1)OCO2)c1ccc(Br)cc1 [Compound 1],–
> 1000 µM,269 µM,> 1000 µM,> 1000 µM,> 1000 µM,> 1000 µM,151 µM,O=C(OCc1ccc2c(c1)OCO2)c1ccc(I)cc1 [Compound 3],–
> 1000 µM,203 µM,> 1000 µM,182 µM,380 µM,729 µM,7.87 µM,Nc1cccc(C(=O)OCc2ccc3c(c2)OCO3)c1 [Compound 4],LDHB/LDHA [5]: 0.043
> 1000 µM,644 µM,> 1000 µM,478 µM,> 1000 µM,> 1000 µM,> 1000 µM,O=C(OCc1ccc2c(c1)OCO2)c1ccc(F)cc1 [Compound 5],–
> 1000 µM,> 1000 µM,> 1000 µM,452 µM,> 1000 µM,> 1000 µM,130 µM,O=C(CC(F)(F)F)OCc1ccc2c(c1)OCO2 [Compound 6],LDHB/LDHA [5]: 0.29
> 1000 µM,243 µM,> 1000 µM,843 µM,> 1000 µM,> 1000 µM,> 1000 µM,O=C(OCc1ccc2c(c1)OCO2)c1ccccc1 [Compound 7],LDHB/LDHA [5]: > 1.18
> 1000 µM,86.5 µM,> 1000 µM,> 1000 µM,> 1000 µM,> 1000 µM,248 µM,Cc1ccc(C(=O)OCc2ccc3c(c2)OCO3)cc1 [Compound 8],–
–,–,–,–,–,–,–,O=C(OCc1ccc2c(c1)OCO2)c1ccc([Se]c2ccccc2)cc1 [Compound 9],"GI50 ([2]; MIA PaCa-2, 48 h): 108 µM; GI50 ([3]; Homo sapiens, PANC-1, 48 h): 21.1 µM; GI50 ([4]; A549, 48 h): 925 µM; IC50 [5]: > 1000 µM; GI50 [6]: > 1000 µM; GI50 ([7]; MCF7, 48 h): 455 µM; IC50 ([8]; LDHB IC50, synthesized compounds): 1000 µM and 151 µM"
–,–,–,–,–,–,–,CCOC(=O)[C@H](CCc1ccccc1)N[C@@H](C)C(=O)N1CCC[C@H]1C(=O)O [Enalapril],remaining at 0.5 h [9]: 95%; remaining at 2 h [9]: 93.7%; remaining at 0.5 h [10]: 37.7%; remaining at 2 h [10]: 1.8%
–,–,–,–,–,–,–,"COc1ncc(-c2ccc3c(Nc4cc(Oc5cc(F)cc(F)c5)cc(C(=O)O)c4)c(S(=O)(=O)NC4CC4)cnc3c2)c(OC)n1 [GSK2837808A, reference compound]","GI50 ([3]; MTT, 48 h): 11.3 µM"
–,–,–,–,–,–,–,C[C@H](Cc1ccc2c(c1)OCO2)[C@@H](C)Cc1ccc2c(c1)OCO2 [Machilin A],IC50 [1]: 84 µM
–,–,–,–,–,–,–,CCN(CC)CCOC(=O)c1ccc(N)cc1 [Procaine],remaining at 5 min [9]: 1.5%; remaining at 10 min [9]: 0.4%; remaining at 0.5 h [10]: 89.8%; remaining at 2 h [10]: 52.6%
–,–,–,–,–,–,–,OCc1ccc2c(c1)OCO2 [piperonyl alcohol],LDHA inhibitory activity [1]: did not exhibit an LDHA inhibitory activity
–,–,–,–,–,–,–,GNE140 [reference compound],"GI50 ([3]; MTT, 48 h): 11.6 µM and 11.9 µM"
